3 molecules from US7465724B2, “Bis-pyrrolo[2,1-c][1,4]benzodiazepine-anthraquinone conjugates and a process for the preparation thereof” (Council of Scientific and Industrial Research, priority 2006, dated 2008) can be followed below.

Type in all cases: cell-based, human
Common to all, as to settings: 48 h continuous drug exposure; dose to inhibit cell growth by 50% vs untreated cell controls

For one test, the system named is Colo205. The experiment in a line: In vitro cytotoxicity, SRB assay, Colo205. The method, then: (§1) Cytotoxicity: Compounds Va-c have been evaluated for the primary anticancer activity in selected human cancer cell lines. For each compound, dose response curves against each cell line were measured at a minimum of five concentrations at 10 fold dilutions. A protocol of 48 h continuous drug exposure was used and a sulforhodamine B (SRB) protein assay was used to estimate cell viability or growth. The concentration causing 50% cell growth inhibition compared with the control has been calculated.
Background: The SRB assay estimates cell density from bound dye.

In the next test the test system is SiHa. The test is described as follows: In vitro cytotoxicity, SRB assay, SiHa. The procedure: as §1
Another test relates to A2780. The experiment in a line: In vitro cytotoxicity, SRB assay, A2780. The procedure:
as §1

For the next test, the system named is Hop62. The experiment in a line: In vitro cytotoxicity, SRB assay, Hop62. The method, then:
as §1

For another test, the system named is MCF7. The experiment in a line: In vitro cytotoxicity, SRB assay, MCF7. The procedure: as §1
A further test deals with ZR-75-1. The experiment in a line: In vitro cytotoxicity, SRB assay, ZR-75-1. The method, then: as §1
The next test deals with PC3. The experiment in a line: In vitro cytotoxicity, SRB assay, PC3. The procedure: as §1

As a reminder, the IC50 is the concentration at which inhibition is half-maximal. Higher therefore signals weaker potency in that assay.

Bounds are passed on as bounds.

Regarding `COc1cc2c(cc1OCCCOc1ccc(OCCCOc3cc4c(cc3OC)C(=O)N3CCC[C@H]3C=N4)c3c1C(=O)c1ccccc1C3=O)N=C[C@@H]1CCCN1C2=O` [Va, 1,4-Bis-{3-[7-methoxy-8-oxy-(11aS)-1,2,3,11atetrahydro-5H-pyrrolo [2,1-c][1,4]-benzodiazepin-5-one]propyloxy}anthracene-9,10-dione], the IC50 in the test on Colo205 is less than 1 µM; in the test on SiHa it was 0.8 µM; in the test with A2780, 0.6 µM; in the test on Hop62, less than 1 µM; in the test with MCF7, 0.6 µM; in the test with ZR-75-1, 0.5 µM. In the test with PC3, this molecule displayed a 50% inhibitory concentration (IC50) of 0.6 µM.

Consider `COc1cc2c(cc1OCCCCOc1ccc(OCCCCOc3cc4c(cc3OC)C(=O)N3CCC[C@H]3C=N4)c3c1C(=O)c1ccccc1C3=O)N=C[C@@H]1CCCN1C2=O` [Vb, 1,4-Bis-{4-[7-methoxy-8-oxy-(11aS)-1,2,3,11atetrahydro-5H-pyrrolo [2,1-c][1,4]benzodiazepin-5-one]butyloxy}anthracene-9,10-dione], for which the IC50 with Colo205 was found to be 10 µM; with SiHa, 9 µM; with A2780, 10 µM; in the test on MCF7, 9 µM; with PC3, 7 µM.

Regarding `COc1cc2c(cc1OCCCCCOc1ccc(OCCCCCOc3cc4c(cc3OC)C(=O)N3CCC[C@H]3C=N4)c3c1C(=O)c1ccccc1C3=O)N=C[C@@H]1CCCN1C2=O` [Vc, 1,4-Bis-{5-[7-methoxy-8-oxy-(11aS)-1,2,3,11atetrahydro-5H-pyrrolo [2,1-c][1,4]benzodiazepin-5-one]pentyloxy}anthracene-9,10-dione], the IC50 is less than 1 µM in the test on Colo205; 0.8 µM with SiHa; 0.6 µM in the test with A2780; 1.4 µM with Hop62; 1.2 µM in the test on MCF7; 1.5 µM with ZR-75-1. In the test on PC3, this molecule yielded an IC50 of 1 µM.
